In paper PMC5341070, “Small molecule inhibitors block Gas6-inducible TAM activation and tumorigenicity” (Scientific Reports, 2017) one finds percent of control binding and remaining binding data, which are given here for two compounds.

Holding throughout (assay): biochemical
What all share (design): KINOMEscan (DiscoverX) competition binding screen of 97 human kinases, percent of control at 10 uM

One experiment has as its target T1, ABL1-nonphosphorylated (Homo sapiens, UniProt P00519).
T1 construct: nonphosphorylated
As to the method: (§1) The KINOMEscan profiling of the inhibitors were performed as per directions by the manufacturer (DiscoverX) against a panel of human protein kinases.

A further experiment has as its target AKT2 (Homo sapiens, UniProt P31751). As to the method:
as §1

For a further experiment, the target named is BMPR2 (Homo sapiens, UniProt Q13873). As to the method:
as §1

Another experiment addresses CDK9 (Homo sapiens, UniProt P50750). How it is done:
as §1

The target of a further experiment is CHEK1 (Homo sapiens, UniProt O14757). How it is done:
as §1

Another experiment concerns the target T2, DCAMKL1 (Homo sapiens, UniProt O15075).
T2 construct: gene DCLK1
How it is done:
as §1

Another experiment has as its target EGFR(L858R) (Homo sapiens, UniProt P00533, L858R). As to the method:
as §1

The target in a further experiment is EPHA2 (Homo sapiens, UniProt P29317). As to the method:
as §1

The target of the next experiment is T3, ERK1 (Homo sapiens, UniProt P27361).
T3 construct: gene MAPK3
As to the method: as §1

A further experiment addresses FGFR3 (Homo sapiens, UniProt P22607). As to the method: as §1
Another experiment concerns the target T4, JNK1 (Homo sapiens, UniProt P45983).
T4 construct: gene MAPK8
How it is done:
as §1

In a further experiment the target is T5, JNK2 (Homo sapiens, UniProt P45984).
T5 construct: gene MAPK9
As to the method:
as §1

A further experiment concerns the target KIT(D816V) (Homo sapiens, UniProt P10721, D816V). How it is done:
as §1

In another experiment the target is T6, LKB1 (Homo sapiens, UniProt Q15831).
T6 construct: gene STK11
How it is done:
as §1

A further experiment concerns the target T7, MEK1 (Homo sapiens, UniProt Q02750).
T7 construct: gene MAP2K1
As to the method: as §1

The next experiment deals with MET (Homo sapiens, UniProt P08581). As to the method:
as §1

The target in a further experiment is PAK2 (Homo sapiens, UniProt Q13177). As to the method:
as §1

The next experiment addresses PDGFRA (Homo sapiens, UniProt P16234). As to the method:
as §1

Another experiment has as its target PIK3C2B (Homo sapiens, UniProt O00750). How it is done: as §1
The next experiment addresses PIM1 (Homo sapiens, UniProt P11309). How it is done: as §1
A further experiment has as its target PLK4 (Homo sapiens, UniProt O00444). As to the method: as §1
The target of another experiment is T8, SNARK (Homo sapiens, UniProt Q9H093).
T8 construct: gene NUAK2
How it is done:
as §1

The target of a further experiment is SRC (Homo sapiens, UniProt P12931). How it is done: as §1
Another experiment deals with ZAP70 (Homo sapiens, UniProt P43403). How it is done:
as §1

[1] abbreviates: read-out: R428 %Ctrl @ 10000nM, binding competition.
Where [2] appears, read: binding competition, % of control, read-out: RU-301 %Ctrl @ 10000nM.

Chain of EPHA2 (P29317 whole entry): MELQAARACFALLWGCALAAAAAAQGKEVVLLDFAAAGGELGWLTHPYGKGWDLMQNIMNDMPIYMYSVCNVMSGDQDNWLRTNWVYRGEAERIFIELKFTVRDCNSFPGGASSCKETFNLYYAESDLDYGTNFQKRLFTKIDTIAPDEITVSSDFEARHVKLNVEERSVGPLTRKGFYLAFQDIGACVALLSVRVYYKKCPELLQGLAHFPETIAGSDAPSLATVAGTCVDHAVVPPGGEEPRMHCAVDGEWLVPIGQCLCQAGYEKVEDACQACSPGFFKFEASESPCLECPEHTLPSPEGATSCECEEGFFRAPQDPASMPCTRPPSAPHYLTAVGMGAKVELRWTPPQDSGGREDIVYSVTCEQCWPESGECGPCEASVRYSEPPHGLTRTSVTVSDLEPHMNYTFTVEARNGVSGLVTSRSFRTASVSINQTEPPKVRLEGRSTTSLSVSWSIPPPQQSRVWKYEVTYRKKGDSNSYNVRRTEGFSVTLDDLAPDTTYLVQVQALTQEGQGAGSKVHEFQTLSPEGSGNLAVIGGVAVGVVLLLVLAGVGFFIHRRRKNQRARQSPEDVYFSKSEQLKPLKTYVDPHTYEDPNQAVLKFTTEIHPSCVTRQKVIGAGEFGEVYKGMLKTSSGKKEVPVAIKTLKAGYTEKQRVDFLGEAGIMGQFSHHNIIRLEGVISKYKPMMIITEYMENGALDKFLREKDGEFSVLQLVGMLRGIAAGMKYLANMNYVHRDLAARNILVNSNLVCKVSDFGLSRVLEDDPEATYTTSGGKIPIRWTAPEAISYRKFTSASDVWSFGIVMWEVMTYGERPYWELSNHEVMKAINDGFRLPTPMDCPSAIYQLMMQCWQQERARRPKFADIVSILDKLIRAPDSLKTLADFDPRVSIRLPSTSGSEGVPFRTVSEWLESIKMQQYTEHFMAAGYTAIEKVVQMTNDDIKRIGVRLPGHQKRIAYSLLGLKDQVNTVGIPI
T1 sequence (P00519 whole entry): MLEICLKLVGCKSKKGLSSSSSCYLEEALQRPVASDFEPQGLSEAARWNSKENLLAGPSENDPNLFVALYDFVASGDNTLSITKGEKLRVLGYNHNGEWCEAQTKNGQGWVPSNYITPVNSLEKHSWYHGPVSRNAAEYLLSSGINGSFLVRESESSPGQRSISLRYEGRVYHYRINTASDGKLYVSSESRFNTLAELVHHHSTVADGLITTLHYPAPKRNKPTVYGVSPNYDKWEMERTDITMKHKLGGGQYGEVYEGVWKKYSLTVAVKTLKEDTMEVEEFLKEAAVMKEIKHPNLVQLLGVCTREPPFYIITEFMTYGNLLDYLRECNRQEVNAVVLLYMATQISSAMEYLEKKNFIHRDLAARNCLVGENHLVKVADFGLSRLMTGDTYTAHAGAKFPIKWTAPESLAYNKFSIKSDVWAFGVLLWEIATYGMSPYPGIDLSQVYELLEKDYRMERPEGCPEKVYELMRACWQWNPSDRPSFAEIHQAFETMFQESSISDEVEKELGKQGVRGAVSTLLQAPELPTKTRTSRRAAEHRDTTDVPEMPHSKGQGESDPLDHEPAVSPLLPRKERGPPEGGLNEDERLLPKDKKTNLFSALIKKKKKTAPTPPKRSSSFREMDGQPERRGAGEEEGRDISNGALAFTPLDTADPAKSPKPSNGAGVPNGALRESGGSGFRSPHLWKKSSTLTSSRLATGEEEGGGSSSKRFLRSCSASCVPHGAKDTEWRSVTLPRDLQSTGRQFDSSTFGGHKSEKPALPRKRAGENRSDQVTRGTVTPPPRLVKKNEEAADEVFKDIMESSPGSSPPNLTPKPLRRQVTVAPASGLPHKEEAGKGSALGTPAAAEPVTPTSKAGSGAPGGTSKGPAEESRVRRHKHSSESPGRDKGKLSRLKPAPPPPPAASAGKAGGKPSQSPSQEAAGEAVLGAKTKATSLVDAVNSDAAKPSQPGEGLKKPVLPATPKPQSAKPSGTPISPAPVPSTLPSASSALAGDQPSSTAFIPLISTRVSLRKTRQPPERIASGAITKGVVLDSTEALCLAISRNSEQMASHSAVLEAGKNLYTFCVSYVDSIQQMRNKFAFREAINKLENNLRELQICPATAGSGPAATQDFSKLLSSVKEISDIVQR
Chain of FGFR3 (P22607 whole entry): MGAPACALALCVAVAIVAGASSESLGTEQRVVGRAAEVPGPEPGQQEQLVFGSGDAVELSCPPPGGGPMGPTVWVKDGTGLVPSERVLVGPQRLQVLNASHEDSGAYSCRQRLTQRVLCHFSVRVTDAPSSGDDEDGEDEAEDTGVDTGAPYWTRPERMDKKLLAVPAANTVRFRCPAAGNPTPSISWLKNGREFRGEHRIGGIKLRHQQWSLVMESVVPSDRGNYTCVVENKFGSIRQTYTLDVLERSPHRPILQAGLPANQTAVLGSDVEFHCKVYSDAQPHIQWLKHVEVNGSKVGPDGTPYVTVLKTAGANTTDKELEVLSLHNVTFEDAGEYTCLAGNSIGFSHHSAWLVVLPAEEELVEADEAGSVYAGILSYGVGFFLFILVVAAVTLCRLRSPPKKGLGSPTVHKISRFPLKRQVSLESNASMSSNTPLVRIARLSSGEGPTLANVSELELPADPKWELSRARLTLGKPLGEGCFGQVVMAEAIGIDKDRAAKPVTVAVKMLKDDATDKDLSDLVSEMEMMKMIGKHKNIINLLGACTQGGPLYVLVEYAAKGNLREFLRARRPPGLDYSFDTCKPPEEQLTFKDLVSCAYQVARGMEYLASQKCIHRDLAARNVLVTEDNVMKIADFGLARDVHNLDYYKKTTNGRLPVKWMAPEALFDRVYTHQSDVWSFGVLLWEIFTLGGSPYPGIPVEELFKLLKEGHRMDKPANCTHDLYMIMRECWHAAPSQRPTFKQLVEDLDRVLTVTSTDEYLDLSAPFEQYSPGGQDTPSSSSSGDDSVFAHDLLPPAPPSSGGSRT
T3 sequence (P27361 whole entry): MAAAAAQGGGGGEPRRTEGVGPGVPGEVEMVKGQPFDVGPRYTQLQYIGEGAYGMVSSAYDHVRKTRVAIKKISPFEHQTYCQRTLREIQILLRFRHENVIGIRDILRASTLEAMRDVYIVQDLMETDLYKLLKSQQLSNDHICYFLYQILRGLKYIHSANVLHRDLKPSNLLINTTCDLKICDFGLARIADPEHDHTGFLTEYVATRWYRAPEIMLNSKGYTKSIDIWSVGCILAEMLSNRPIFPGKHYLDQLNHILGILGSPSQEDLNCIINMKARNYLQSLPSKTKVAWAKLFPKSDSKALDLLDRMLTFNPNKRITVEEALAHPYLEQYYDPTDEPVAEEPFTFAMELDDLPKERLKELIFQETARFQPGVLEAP
T6 sequence (Q15831 whole entry): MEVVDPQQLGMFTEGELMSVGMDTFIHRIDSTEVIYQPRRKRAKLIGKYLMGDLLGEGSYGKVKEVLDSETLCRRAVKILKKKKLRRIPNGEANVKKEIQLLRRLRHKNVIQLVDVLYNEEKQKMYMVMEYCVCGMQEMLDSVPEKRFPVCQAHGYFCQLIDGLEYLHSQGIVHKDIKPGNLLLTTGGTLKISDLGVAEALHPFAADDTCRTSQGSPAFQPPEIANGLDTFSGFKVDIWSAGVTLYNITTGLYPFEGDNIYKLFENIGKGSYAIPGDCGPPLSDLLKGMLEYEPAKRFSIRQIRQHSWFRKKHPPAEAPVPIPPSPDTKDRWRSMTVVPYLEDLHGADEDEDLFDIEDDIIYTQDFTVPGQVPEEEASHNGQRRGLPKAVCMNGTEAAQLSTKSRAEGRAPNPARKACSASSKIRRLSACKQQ
T5 sequence (P45984 whole entry): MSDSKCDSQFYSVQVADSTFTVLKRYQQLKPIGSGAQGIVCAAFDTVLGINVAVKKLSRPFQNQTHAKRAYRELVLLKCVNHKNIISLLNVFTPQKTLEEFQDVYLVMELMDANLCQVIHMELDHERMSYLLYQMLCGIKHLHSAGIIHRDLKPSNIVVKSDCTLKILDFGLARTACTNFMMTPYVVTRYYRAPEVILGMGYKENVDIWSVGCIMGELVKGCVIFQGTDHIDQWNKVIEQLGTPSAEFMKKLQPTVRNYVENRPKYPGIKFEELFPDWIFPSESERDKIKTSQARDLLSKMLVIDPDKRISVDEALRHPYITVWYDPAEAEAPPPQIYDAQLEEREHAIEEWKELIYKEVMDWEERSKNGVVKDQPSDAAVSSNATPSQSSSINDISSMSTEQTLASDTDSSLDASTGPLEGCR
Chain of PIM1 (P11309 whole entry): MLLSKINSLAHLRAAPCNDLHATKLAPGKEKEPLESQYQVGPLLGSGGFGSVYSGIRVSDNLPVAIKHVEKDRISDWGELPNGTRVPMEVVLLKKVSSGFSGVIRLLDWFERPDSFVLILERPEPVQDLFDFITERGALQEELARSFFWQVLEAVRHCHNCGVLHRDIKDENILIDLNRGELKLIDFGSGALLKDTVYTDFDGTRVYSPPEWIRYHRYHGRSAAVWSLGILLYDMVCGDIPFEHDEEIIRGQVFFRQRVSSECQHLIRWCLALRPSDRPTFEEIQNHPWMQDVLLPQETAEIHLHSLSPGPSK
Chain of CDK9 (P50750 whole entry): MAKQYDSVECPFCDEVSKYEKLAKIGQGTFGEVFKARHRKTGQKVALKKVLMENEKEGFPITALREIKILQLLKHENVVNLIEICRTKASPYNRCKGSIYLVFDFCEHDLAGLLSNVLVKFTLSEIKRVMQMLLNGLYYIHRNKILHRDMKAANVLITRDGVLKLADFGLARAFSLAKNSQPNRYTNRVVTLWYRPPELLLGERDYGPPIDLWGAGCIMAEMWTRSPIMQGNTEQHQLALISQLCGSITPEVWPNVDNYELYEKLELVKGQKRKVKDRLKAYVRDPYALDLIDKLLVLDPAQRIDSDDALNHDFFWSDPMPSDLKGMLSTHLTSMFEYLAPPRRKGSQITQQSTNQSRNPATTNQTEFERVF

For the compound `Nc1nc(Nc2ccc3c(c2)CC[C@@H](N2CCCC2)CC3)nn1-c1cc2c(nn1)-c1ccccc1CCC2` [R428], the percent of control binding at 10 µM is 0.25% on ABL1-nonphosphorylated (setting [1]); 100% on AKT2 (setting [1]); 23% on BMPR2 (setting [1]); 92% on CDK9 (setting [1]); 15% at CHEK1 (setting [1]); 98% at DCAMKL1 (setting [1]). The percent of control binding at 10 µM was determined as 10% at EGFR(L858R) (setting [1]); 71% at EPHA2 (setting [1]); 100% at ERK1 (setting [1]); 30% on FGFR3 (setting [1]); 14% on JNK1 (setting [1]); 96% at JNK2 (setting [1]). The percent of control binding at 10 µM on KIT(D816V) (setting [1]) was 0.15%; at LKB1 (setting [1]) it was 60%; on MEK1 (setting [1]), 3%; on MET (setting [1]), 9.4%; on PAK2 (setting [1]), 69%; at PDGFRA (setting [1]), 1.4%. The percent of control binding at 10 µM at PIK3C2B (setting [1]) turned out to be 31%; at PIM1 (setting [1]), 67%; on PLK4 (setting [1]), 1.7%; at SNARK (setting [1]) it was 0.65%; at SRC (setting [1]), 14%; on ZAP70 (setting [1]), 33%.

As for `Cc1cc(CSc2ccccc2C(=O)NCCNc2ccc(C(F)(F)F)cc2[N+](=O)[O-])on1` [RU-301], the remaining binding at 10 µM at ABL1-nonphosphorylated (setting [2]) turned out to be 100%; at AKT2 (setting [2]), 100%; on BMPR2 (setting [2]) it was 78%; on CDK9 (setting [2]), 95%; on CHEK1 (setting [2]) it was 83%; at DCAMKL1 (setting [2]) it was 81%. The remaining binding at 10 µM stood at 94% on EGFR(L858R) (setting [2]); 96% on EPHA2 (setting [2]); 100% at ERK1 (setting [2]); 91% at FGFR3 (setting [2]); 91% at JNK1 (setting [2]); 97% at JNK2 (setting [2]). Also, the remaining binding at 10 µM worked out at 100% at KIT(D816V) (setting [2]); 77% at LKB1 (setting [2]); 75% on MEK1 (setting [2]); 88% on MET (setting [2]); 96% on PAK2 (setting [2]); 99% on PDGFRA (setting [2]). In addition, the remaining binding at 10 µM on PIK3C2B (setting [2]) was 100%; at PIM1 (setting [2]), 82%; on PLK4 (setting [2]), 81%; at SNARK (setting [2]) it was 100%; on SRC (setting [2]), 96%; on ZAP70 (setting [2]), 76%.
